Measured values as given in patent US8445509B2, “Fused heterocyclic derivatives and use thereof” (Takeda Pharmaceutical Company Limited, priority 2008, dated 2013).

Legend:
[1] = tested on: Human umbilical vein-derived vascular endothelial cells (HUVEC); assay: Vascular endothelial cell proliferation inhibitory test (VEGF-stimulated HUVEC); format: cell-based; details: 120 h, 5 days of culture with VEGF
Experimental: Human umbilical vein-derived vascular endothelial cells (HUVEC purchased from KURABO […] LTD.) were cultured in an incubator at 37° C., 5% carbon dioxide in a vascular endothelial cell medium (Invitrogen) containing 3% bovine fetal serum and 2.5 ng/mL basic fibroblast growth factor. To be specific, HUVEC was suspended in a vascular endothelial cell medium containing the aforementioned 3% bovine fetal serum and plated on a 96 well flat bottom plate by 50 μL (3000 cells) each well. After culture overnight, various concentrations of the test substance and 120 ng/mL of vascular endothelial growth factor (VEGF) were dissolved in a vascular endothelial cell medium containing 3% bovine fetal serum and added to each well by 50 μL. After 5 days of culture, a Cell counting kit-8 reagent (DOJINDO LABORATORIES) was added to each well by 10 μL, and the mixture was reacted in an incubator at 37° C., 5% carbon dioxide for 2-3 hr. The absorbance at 450 nm was measured by a microtiter plate reader and the cell proliferation inhibitory activity was determined. Using the absorbance with addition of a test substance at each concentration and based on the nonlinear least-squares analysis using a logistic curve of SAS system NLIN procedure, the concentration of the test substance (IC50 value) necessary for showing 50% of the value obtained without addition of the test substance was calculated.

[2] = target: T1, c-Met intracellular domain protein (Homo sapiens, UniProt P08581); assay: Hepatocyte growth factor receptor (c-Met) kinase inhibitory activity (AlphaScreen); format: biochemical; details: for inhibition at 1 µM: 1 μM test compound, read-out: inhibitory rate (%) at 1 μM
T1 construct: 2.5 ng/ml of c-Met intracellular domain protein (Millipore); purchased Millipore
Experimental: A test compound dissolved in dimethyl sulfoxide (DMSO) was diluted with a buffer (50 mM Tris-HCl (pH 7.5), 5 mM MgCl2, 5 mM MnCl2, 2 mM dithiothreitol, 0.01% Tween-20). To this compound solution (5 μL) was added a buffer (10 μL) containing 2.5 ng/ml of c-Met intracellular domain protein (Millipore) and 250 ng/mL of biotin labeled polypeptide biotinyl-poly-Glu:Tyr (4:1) (CIS bio International). […] The reaction solution was allowed to stand at 25° C. for 16 hrs, and the wells were counted using a plate reader (Fusion™ (PerkinElmer)). The kinase inhibitory rate (%) of the test compound was calculated by the following formula: Inhibitory rate (%)=(1−(count of test compound−blank)÷(control−blank))×100
(§1) The count of the solution reacted without addition of the compound was used as a “control”, and the count of the solution without the compound and ATP was used as a “blank”.

[3] = tested on: Human gastric cancer cell line MKN-45; assay: Human gastric cancer cell line MKN-45 growth inhibitory test; format: cell-based; details: MKN-45, 72 h, culture for 3 days; for inhibition at 1 µM: 1 μM test substance, read-out: inhibitory rate (%) at 1 μM; for IC50: read-out: IC50 value
Experimental: Human gastric cancer cell line MKN-45 (RIKEN BioResource Center) was cultured in RPMI1640 (Invitrogen) containing 10% bovine fetal serum in a gas incubator at 37° C., 5% CO2. MKN-45 cells were treated with trypsin/EDTA and recovered. The cells were suspended in RPMI1640 containing 0.3% bovine fetal serum, plated on a 96 well flat bottom plate at a cells density of 3000 cells/50 μL per well. After culturing overnight, various concentrations of test substance were dissolved in RPMI1640 containing 0.3% bovine fetal serum and added to each well by 50 μL. After culture for 3 days, a Cell counting kit-8 reagent (DOJINDO LABORATORIES) was added to each well by 10 μL, and reacted in an incubator at 37° C., 5% CO2 for 2-3 hr. After the reaction, the absorbance of each well at 450 nm was measured by a microtiter plate reader. The concentration of a test substance necessary for inhibiting the growth by 50% (IC50 value) was calculated using a cell proliferation rate with addition of the test substance at each concentration and according to the nonlinear regression analysis using GraphPad Prism [Sigmoidal dose response (variable slope)]. The cell proliferation rate (%) with addition of a test substance at each concentration was calculated by the following formula. As a positive control (100% growth), dimethyl sulfoxide was added instead of a test substance. As a negative control (0% growth), the compound of Reference Example 136 (WO2005/030140, Entry 104), which is a known c-Met inhibitor, was added in large excess (10 μM) instead of a test substance.

[4] = target: T2, FLT3 intracellular domain protein (Homo sapiens, UniProt P36888); assay: Fms Like Tyrosine Kinase 3 (FLT3) kinase inhibitory activity (AlphaScreen); format: biochemical; details: for inhibition at 1 µM: 1 μM test compound, read-out: inhibitory rate (%) at 1 μM
T2 construct: 7.5 ng/ml of FLT3 intracellular domain protein (Millipore); purchased Millipore
T2 sequence (P36888 564-993 limits assumed): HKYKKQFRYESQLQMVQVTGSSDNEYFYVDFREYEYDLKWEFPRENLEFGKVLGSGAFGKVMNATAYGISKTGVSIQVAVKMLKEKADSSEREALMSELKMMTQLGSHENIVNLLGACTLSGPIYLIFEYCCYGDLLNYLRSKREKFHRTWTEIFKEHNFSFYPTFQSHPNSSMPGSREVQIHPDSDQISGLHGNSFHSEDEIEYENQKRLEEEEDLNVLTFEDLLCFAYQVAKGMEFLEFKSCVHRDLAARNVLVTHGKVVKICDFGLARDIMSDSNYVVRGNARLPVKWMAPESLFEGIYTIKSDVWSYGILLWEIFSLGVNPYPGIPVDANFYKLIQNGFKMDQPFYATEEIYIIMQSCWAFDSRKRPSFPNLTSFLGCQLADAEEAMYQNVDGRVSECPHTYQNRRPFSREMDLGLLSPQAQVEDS
Experimental: A test compound dissolved in dimethyl sulfoxide (DMSO) was diluted with a buffer (50 mM Tris-HCl (pH 7.5), 5 mM MgCl2, 5 mM MnCl2, 2 mM dithiothreitol, 0.01% Tween-20). To this compound solution (5 μL) was added a buffer (10 μL) containing 7.5 ng/ml of FLT3 intracellular domain protein (Millipore) and 250 ng/mL of biotin labeled polypeptide biotinyl-poly-Glu:Tyr (4:1) (CIS bio International). At 5 min after mixing kinase enzyme and the compound and biotin labeled polypeptide, to the obtained mixture was added a buffer (10 μL) containing ATP (5 μM), the mixture was allowed to react at 25° C. for 10 min and the reaction was quenched with 25 μL of a stop solution (100 mM EDTA disodium salt, 62.5 mM HEPES buffer (pH 7.4), 250 mM NaCl, 0.1% bovine serum albumin, 10 μg/mL AlphaScreen assay streptavidin donor beads (Streptavidin Donor Beads: PerkinElmer), 10 μg/mL AlphaScreen assay anti-phosphotyrosine recognition antibody Y-100 binding acceptor beads (Anti-phosphotyrosine (P-Tyr-100) Acceptor beads: PerkinElmer)). The reaction solution was allowed to stand at 25° C. for 16 hrs, and the wells were counted using a plate reader (Envision™ (PerkinElmer)). The kinase inhibitory rate (%) of the test compound was calculated by the following formula: Inhibitory rate (%)=(1−(count of test compound−blank)÷(control−blank))×100
as §1

T1 sequence (P08581 956-1390 limits assumed): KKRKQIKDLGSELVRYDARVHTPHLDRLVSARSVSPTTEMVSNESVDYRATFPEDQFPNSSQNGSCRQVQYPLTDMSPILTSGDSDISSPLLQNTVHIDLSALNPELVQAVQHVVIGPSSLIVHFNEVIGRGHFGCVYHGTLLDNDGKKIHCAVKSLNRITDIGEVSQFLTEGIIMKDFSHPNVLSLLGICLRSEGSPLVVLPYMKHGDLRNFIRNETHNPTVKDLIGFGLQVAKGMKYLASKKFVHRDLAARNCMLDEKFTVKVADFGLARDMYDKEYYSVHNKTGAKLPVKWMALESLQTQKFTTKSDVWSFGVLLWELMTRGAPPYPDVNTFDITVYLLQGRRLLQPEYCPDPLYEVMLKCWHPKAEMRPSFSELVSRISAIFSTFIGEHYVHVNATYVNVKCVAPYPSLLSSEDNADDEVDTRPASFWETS

Row | IC50 [2] [nM] | inhibition at 1 µM [2] [%] | IC50 [3] [nM] | IC50 [4] [nM] | inhibition at 1 µM [4] [%] | SMILES | IC50 [1] [nM] | inhibition at 1 µM [3] [%]
1 | ≤ 1000 | ≥ 80 | ≤ 1000 | ≤ 1000 |  | CC1=C(c2ccc(F)cc2)C(=O)N(C(=O)Nc2ccc(Oc3ccc4nc(NC(=O)C5CC5)cn4c3)c(F)c2)CC1 [Example 81, N-[4-({2-[(cyclopropylcarbonyl)amino]imidazo[1,2-a]pyridin-6-yl}oxy)-3-fluorophenyl]-5-(4-fluorophenyl)-4-methyl-6-oxo-3,6-dihydropyridine-1(2H)-carboxamide] | ≤ 2000 | ≥ 80
2 | ≤ 1000 | ≥ 80 | ≤ 1000 | ≤ 1000 |  | Cc1cc(C)n(-c2ccc(F)cc2)c(=O)c1C(=O)Nc1ccc(Oc2ccc3nc(NC(=O)C4CC4)cn3c2)c(F)c1 [Example 82, N-[4-({2-[(cyclopropylcarbonyl)amino]imidazo[1,2-a]pyridin-6-yl}oxy)-3-fluorophenyl]-1-(4-fluorophenyl)-4,6-dimethyl-2-oxo-1,2-dihydropyridine-3-carboxamide] | ≤ 2000 | ≥ 80
3 | ≤ 1000 | ≥ 80 | ≤ 1000 |  |  | Cc1ccc(C(=O)Nc2ccc(Oc3ccc4nc(NC(=O)C5CC5)cn4c3)c(F)c2)c(=O)n1-c1ccc(F)cc1.Cl [Example 32, N-[4-({2-[(cyclopropylcarbonyl)amino]imidazo[1,2-a]pyridin-6-yl}oxy)-3-fluorophenyl]-1-(4-fluorophenyl)-6-methyl-2-oxo-1,2-dihydropyridine-3-carboxamide hydrochloride] | ≤ 2000 | ≥ 80
4 | ≤ 1000 | ≥ 80 | ≤ 1000 | ≤ 1000 |  | Cc1c(C(=O)Nc2ccc(Oc3ccc4nc(NC(=O)C5CC5)cn4c3)c(F)c2)c(=O)n(-c2ccccc2)n1C [Example 46, N-[4-({2-[(cyclopropylcarbonyl)amino]imidazo[1,2-a]pyridin-6-yl}oxy)-3-fluorophenyl]-1,5-dimethyl-3-oxo-2-phenyl-2,3-dihydro-1H-pyrazole-4-carboxamide] | ≤ 2000 | ≥ 80
5 | ≤ 1000 | ≥ 80 | ≤ 1000 | ≤ 1000 |  | O=C(Nc1cn2cc(Oc3ccc(NC(=O)C4(C(=O)Nc5ccc(F)cc5)CC4)cc3F)ccc2n1)C1CC1 [Example 11, N-[4-({2-[(cyclopropylcarbonyl)amino]imidazo[1,2-a]pyridin-6-yl}oxy)-3-fluorophenyl]-N′-(4-fluorophenyl)cyclopropane-1,1-dicarboxamide] | ≤ 2000 | ≥ 80
6 | ≤ 1000 | ≥ 80 | ≤ 1000 | ≤ 1000 | ≥ 50 | O=C(Nc1cn2cc(Oc3ccc(NC(=O)N4CCN(c5ccc(F)cc5)C4=O)cc3F)ccc2n1)C1CC1 [Example 53, N-[4-({2-[(cyclopropylcarbonyl)amino]imidazo[1,2-a]pyridin-6-yl}oxy)-3-sfluorophenyl]-3-(4-fluorophenyl)-2-oxoimidazolidine-1-carboxamide] | ≤ 2000 | ≥ 80
7 | ≤ 1000 | ≥ 80 | ≤ 1000 | ≤ 1000 | ≥ 50 | O=C(Nc1ccc(Oc2ccc3nc(NC(=O)C4CC4)cn3c2)c(F)c1)c1cccn(-c2ccc(F)cc2)c1=O [Example 10, N-[4-({2-[(cyclopropylcarbonyl)amino]imidazo[1,2-a]pyridin-6-yl}oxy)-3-fluorophenyl]-1-(4-fluorophenyl)-2-oxo-1,2-dihydropyridine-3-carboxamide] | ≤ 2000 | ≥ 80
8 | ≤ 1000 | ≥ 80 | ≤ 1000 | ≤ 1000 |  | Cc1c(C(=O)Nc2ccc(Oc3ccc4nc(NC(=O)C5CC5)cn4c3)c(F)c2)c(=O)n(-c2ccc(F)cc2)n1C [Example 77, N-[4-({2-[(cyclopropylcarbonyl)amino]imidazo[1,2-a]pyridin-6-yl}oxy)-3-fluorophenyl]-2-(4-fluorophenyl)-1,5-dimethyl-3-oxo-2,3-dihydro-1H-pyrazole-4-carboxamide] | ≤ 2000 | ≥ 80
9 | ≤ 1000 | ≥ 80 | ≤ 1000 | ≤ 1000 |  | Cc1ccc(C(=O)Nc2ccc(Oc3ccc4nc(NC(=O)C5CC5)cn4c3)cn2)c(=O)n1-c1ccc(F)cc1 [Example 60, N-[5-({2-[(cyclopropylcarbonyl)amino]imidazo[1,2-a]pyridin-6-yl}oxy)pyridin-2-yl]-1-(4-fluorophenyl)-6-methyl-2-oxo-1,2-dihydropyridine-3-carboxamide] | ≤ 2000 | ≥ 80
10 | ≤ 1000 | ≥ 80 | ≤ 1000 | ≤ 1000 |  | Cc1ccc(C(=O)Nc2ccc(Oc3ccc4nc(NC(=O)C5CC5)cn4c3)c(F)c2)c(=O)n1-c1cccc(F)c1 [Example 75, N-[4-({2-[(cyclopropylcarbonyl)amino]imidazo[1,2-a]pyridin-6-yl}oxy)-3-fluorophenyl]-1-(3-fluorophenyl)-6-methyl-2-oxo-1,2-dihydropyridine-3-carboxamide] | ≤ 2000 | ≥ 80
